{"source": "paper PMC4085509", "about": "“Extended treatment of Cushing’s disease with pasireotide: results from a 2-year, Phase II study” (Pituitary, 2013)", "key": {"sst1": {"test_system": "sst1", "settings": "cited from earlier work"}, "[1]": {"test": "Trough plasma concentration of pasireotide, radioimmunoassay", "type": "in vivo, human", "settings": "for level at 4320 h: human, read-out: Ctrough, mean ± SD", "procedure": "(§1) The primary efficacy outcome was the proportion of patients with normalized UFC levels after 6 months of treatment (normal UFC range: 55–276 nmol/24 h; 20–100 μg/24 h). Secondary objectives included assessment of the safety and tolerability of multiple doses of pasireotide and trough plasma concentrations of pasireotide after chronic dosing.\n(§2) Blood samples for serum cortisol, plasma ACTH and pharmacokinetic assessments were collected before the morning pasireotide dose on study visit days. UFC assays were conducted in two central laboratories, one in Europe and the other in the US. Serum cortisol and plasma ACTH assays were assessed centrally by one laboratory (see Supplementary Material for further details).\n(§3) Plasma ACTH was assayed with the Immulite® 2000 ACTH kit (DPC, Los Angeles, CA, USA), which has a lower limit of detection of 9 pg/mL (1.98 pmol/L) and intra- and inter-assay coefficients of variation of 7.7% and 8.5%, respectively. Pasireotide plasma concentrations were measured using a validated radioimmunoassay with an LLOQ of 150 pg/mL."}, "[2]": {"test_system": "patients with Cushing's disease", "test": "Electrocardiogram intervals", "type": "in vivo, human", "settings": "number of patients", "text": "(§4) Patient visits occurred every 2 weeks for the first 3 months and then every 3 months for assessments of UFC, serum cortisol, plasma ACTH, hematology, blood chemistry, HbA1c, electrocardiogram (ECG) and vital signs. Patients were referred to a diabetes specialist for evaluation and appropriate management if any of the following were present: […]"}, "[3]": {"test": "HbA1c and fasting plasma glucose monitoring", "type": "in vivo, human", "procedure": "(§5) Safety was assessed by recording all AEs, as well as by regular monitoring of vital signs, physical condition, body weight, hematology and blood chemistry. HbA1c levels were recorded at extension baseline and then every 16 weeks. HbA1c categories were: <upper limit of normal (ULN; normal defined as <5.7 %), between the ULN and 7 %, between 7 and 9 %, and over 9 %.\nas §4"}, "sst3": {"test_system": "sst3", "set-up": "method as in PMID 11980628", "settings": "cited from earlier work"}, "plasma ACTH": {"test_system": "plasma ACTH", "test": "Plasma ACTH, Immulite 2000 ACTH kit, pre-morning-dose samples", "type": "in vivo, human", "settings": "Day 15, n=18, normal <10", "procedure": "as §2, §3"}, "sst2": {"test_system": "sst2", "set-up": "method as in PMID 11980628", "settings": "cited from earlier work"}, "[4]": {"test_system": "urinary free cortisol (UFC)", "settings": "15-day core study, 600 μg sc bid, cited from earlier work"}, "[5]": {"test_system": "patients with Cushing's disease", "test": "Adverse events and discontinuations in the extension study", "type": "in vivo, human", "procedure": "as §5"}, "[6]": {"test_system": "urinary free cortisol (UFC)", "test": "24-h urinary free cortisol (UFC), ECLIA after dichloromethane extraction, extension study", "type": "in vivo, human", "procedure": "as §1\nPatients were classified as ‘UFC responders’ if their mean UFC level at month 6 was in the normal range; as ‘UFC reducers’ if their mean UFC level at month 6 was lower than that at core study baseline but not within normal limits; and as ‘UFC non-reducers’ if their mean UFC level at month 6 was equal to or higher than that at core study baseline or if the mean UFC level at month 6 was missing. Patients who discontinued prior to month 6 were classified as non-responders.\nas §2\n(§6) UFC levels were measured with two 24-hour urine specimens collected in the 48 hours prior to core baseline and at study visits during the extension study. Serum cortisol was measured with electrochemiluminescence immunoassay (ECLIA), using the Elecsys® cortisol reagent kit (Roche Diagnostics, Indianapolis, IN, USA), which has a lower limit of quantification (LLOQ) of […] (0.018 μg/dL) and intra- and inter-assay coefficients of variation of 1.2% and 1.4%, respectively. UFC levels were measured with ECLIA, using the Elecsys® cortisol reagent kit with prior dichloromethane extraction to reduce the amount of cortisol metabolites and conjugates."}, "sst5": {"test_system": "sst5", "set-up": "method as in PMID 11980628", "settings": "cited from earlier work"}, "serum cortisol": {"test_system": "serum cortisol", "test": "Serum cortisol, ECLIA (Elecsys), pre-morning-dose samples", "type": "in vivo, human", "procedure": "as §2, §6"}, "[7]": {"settings": "at some point during the extension, of six shifted"}, "[8]": {"settings": "of 16 with normal FPG at extension baseline, at some point"}, "[9]": {"settings": "safety population n=19, regardless of study-drug relationship"}}, "note": "Read-outs that look alike come from different tables or passages of the source. *1 amine or outer side, *2 acyl side, *3 side chain or, on linkers, in order; H or OH if unused. Where a SMILES comes first, the peptide text is derived from it. Side-chain parts run from the residue outwards. [ ]: non-standard residue; d: D form. The star is where a group is joined. Ethylenediamine = C(CN[*:2])N[*:1]; Hyp = O=C(O)[C@@H]1C[C@@H](O)CN1; Phg = N[C@H](C(=O)O)c1ccccc1; CO = O=C([*:1])[*:2]; Bn = c1ccc(C*)cc1", "data": [{"molecule": "NCCCC[C@@H]1NC(=O)[C@@H](Cc2c[nH]c3ccccc23)NC(=O)[C@H](c2ccccc2)NC(=O)[C@@H]2C[C@@H](OC(=O)NCCN)CN2C(=O)[C@H](Cc2ccccc2)NC(=O)[C@H](Cc2ccc(OCc3ccccc3)cc2)NC1=O", "note": "[pasireotide] (cyclo([Hyp]([CO-Ethylenediamine])[Phg][dW]KY(Bn)F))", "values": [{"measurement": "Affinity for sst1", "setting": "sst1", "value": "high affinity"}, {"measurement": "Ctrough", "setting": "[1]; Month 6, UFC non-reducers, n=1", "value": 5.2, "unit": "ng/mL"}, {"measurement": "level at 4320 h", "setting": "[1]; Month 6, UFC reducers, n=6, SD", "value": "19.1 ± 10.9", "unit": "ng/mL"}, {"measurement": "level at 4320 h", "setting": "[1]; Month 6, UFC responders, n=4, LLOQ 150 pg/mL, SD", "value": "17.4 ± 11.6", "unit": "ng/mL"}, {"measurement": "Newly occurring QT of 450–480 ms", "setting": "[2]", "value": "One patient"}, {"measurement": "Newly occurring QTcB of 450–480 ms", "setting": "[2]", "value": "another patient"}, {"measurement": "QRS interval of >110 ms (not clinically significant)", "setting": "[2]", "value": "one patient"}, {"measurement": "Patients with HbA1c shifted to a higher category with levels <7%", "setting": "[3]; [7]", "value": "three"}, {"measurement": "Patients with HbA1c shifted to between 7% and 9%", "setting": "[3]; [7]", "value": "three"}, {"measurement": "Patients with post-baseline HbA1c shifted to a higher category", "setting": "[3]; at some point during the extension, eight with baseline values", "value": "Six"}, {"measurement": "Shifts to levels of HbA1c >9%", "setting": "[3]; during the extension", "value": "no shifts"}, {"measurement": "Patients with an increase in fasting plasma glucose level at some point during the extension", "setting": "[3]; in vivo", "value": "All patients"}, {"measurement": "Patients with improved FPG levels at their last assessment", "setting": "[3]; in vivo", "value": "All patients"}, {"measurement": "Patients whose FPG shifted to between 100 and <126 mg/dL (5.6 to <7.0 mmol/L)", "setting": "[3]; [8]", "value": "six"}, {"measurement": "Patients whose FPG shifted to between 126 and <200 mg/dL (7.0 to <11.1 mmol/L)", "setting": "[3]; [8]", "value": "four"}, {"measurement": "Patients whose FPG shifted to ≥200 mg/dL (≥11.1 mmol/L)", "setting": "[3]; [8]", "value": "six"}, {"measurement": "Patients with HbA1c shifted to >ULN but <7% at last assessment", "setting": "[3]; of five remaining higher", "value": "four"}, {"measurement": "Patients with HbA1c shifted to between 7% and 9% at last assessment", "setting": "[3]; of five remaining higher", "value": "one"}, {"measurement": "Patients remaining at a higher post-baseline HbA1c level at last assessment", "setting": "[3]; of the six shifted", "value": "Five"}, {"measurement": "Affinity for sst3", "setting": "sst3", "value": "high affinity"}, {"measurement": "Plasma ACTH, mean ± SD", "setting": "plasma ACTH", "value": "12.4 ± 8.9", "unit": "pmol/L"}, {"measurement": "Affinity for sst2", "setting": "sst2", "value": "high affinity"}, {"measurement": "Proportion of patients with reduced UFC levels", "setting": "[4]; 22/29 patients", "value": 76, "unit": "%"}, {"measurement": "Proportion of patients with normalized UFC", "setting": "[4]; five patients", "value": 17, "unit": "%"}, {"measurement": "Hyperglycemia-related AEs, proportion of patients", "setting": "[5]; 13/19, treatment period", "value": 68, "unit": "%"}, {"measurement": "Deaths during the study", "setting": "[5]; in vivo", "value": "No patients died"}, {"measurement": "Patients with grade 4 AEs", "setting": "[5]; increased γ-glutamyltransferase, type 2 diabetes mellitus, both suspected drug related", "value": "Two"}, {"measurement": "Patients with at least one AE during the study", "setting": "[5]; n=19", "value": "All patients"}, {"measurement": "Patients reporting a hyperglycemia-related adverse event", "setting": "[5]; of 19", "value": "Thirteen"}, {"measurement": "Discontinuation because of AE (new-onset type 2 diabetes mellitus)", "setting": "[5]; one of 19 patients", "value": 5.3, "unit": "%"}, {"measurement": "Adverse event: Abdominal pain", "setting": "[5]; [9]", "value": "9 (47.4) n (%)"}, {"measurement": "Adverse event: Diarrhea", "setting": "[5]; [9]", "value": "13 (68.4) n (%)"}, {"measurement": "Adverse event: Dizziness", "setting": "[5]; [9]", "value": "5 (26.3) n (%)"}, {"measurement": "Adverse event: Fatigue", "setting": "[5]; [9]", "value": "5 (26.3) n (%)"}, {"measurement": "Adverse event: Headache", "setting": "[5]; [9]", "value": "7 (36.8) n (%)"}, {"measurement": "Adverse event: Hyperglycemia", "setting": "[5]; [9]", "value": "11 (57.9) n (%)"}, {"measurement": "Adverse event: Injection-site pain", "setting": "[5]; [9]", "value": "6 (31.6) n (%)"}, {"measurement": "Adverse event: Injection-site pruritus", "setting": "[5]; [9]", "value": "5 (26.3) n (%)"}, {"measurement": "Adverse event: Nausea", "setting": "[5]; [9]", "value": "12 (63.2) n (%)"}, {"measurement": "Discontinuation because of unsatisfactory therapeutic effect", "setting": "[5]; three of 19 patients, after 5–10 months", "value": 15.8, "unit": "%"}, {"measurement": "Discontinuation because of abnormal laboratory value", "setting": "[5]; two of 19 patients: one increased HbA1c and glucose, one elevated UFC", "value": 10.5, "unit": "%"}, {"measurement": "UFC, mean ± SD", "setting": "[6]; Day 15, n=17, primary efficacy population, normal 55–276", "value": "522 ± 302", "unit": "nmol/24 h"}, {"measurement": "Proportion of patients with normal UFC levels (UFC responders)", "setting": "[6]; Month 6, 4 of 18 patients, primary efficacy analysis, 95 % CI 6.4–47.6", "value": 22.2, "unit": "%"}, {"measurement": "Proportion of patients with reduction in mean UFC but not to within normal range (UFC reducers)", "setting": "[6]; Month 6, 6 of 18 patients", "value": 33.3, "unit": "%"}, {"measurement": "Proportion of patients with lower UFC than at core baseline", "setting": "[6]; Month 6, 10 of 18 patients", "value": 56, "unit": "%"}, {"measurement": "UFC, mean ± SD", "setting": "[6]; Month 6, n=11, primary efficacy population", "value": "421 ± 340", "unit": "nmol/24 h"}, {"measurement": "UFC, mean ± SD", "setting": "[6]; Month 12, n=4, primary efficacy population", "value": "398 ± 220", "unit": "nmol/24 h"}, {"measurement": "UFC, mean ± SD", "setting": "[6]; Month 24, n=4, primary efficacy population", "value": "514 ± 456", "unit": "nmol/24 h"}, {"measurement": "Number of patients with >50 % reduction in mean UFC from core baseline", "setting": "[6]; Month 24, of four patients on study drug", "value": "three"}, {"measurement": "Number of patients with normalized UFC", "setting": "[6]; Month 24, of the four patients who remained on study drug", "value": "one"}, {"measurement": "Affinity for sst5", "setting": "sst5", "value": "highest affinity"}, {"measurement": "Serum cortisol, mean ± SD", "setting": "serum cortisol; Day 15, n=18, normal 221–690 (09:00 h)", "value": "698 ± 161", "unit": "nmol/L"}, {"measurement": "Serum cortisol, mean ± SD", "setting": "serum cortisol; Month 6, n=11", "value": "559 ± 300", "unit": "nmol/L"}]}]}
